Columns and labels:
P-gp (human MDR1) = target: T1, P-gp (human MDR1) (Homo sapiens, UniProt P08183); test: P-gp (P-Glycoprotein) bidirectional transcellular transport assay, LLC-PK1 and L-MDR1 cells; type: in vitro ADME; conditions: LLC-PK1 cells expressing human MDR1, PappBA/PappAB
T1 construct: host or cells: LLC-PK1 (porcine kidney epithelial cells)
Method: P-gp (P-Glycoprotein) Assay
Cell Lines and Vesicles Used for Transport Experiments
The MDR1 (human multidrug resistance protein 1) transfected cell lines were obtained from Dr. A. Schinkel, The Netherlands Cancer Institute (Amsterdam, The Netherlands). All cell lines were cultured on permeable inserts (Costar, 0.33 cm^2 area, pore size 3.0 μm, low density) at 4.5·10^5 cells/cm^2. Transport measurements were performed at day 4 after seeding. Tightness of the cell monolayer was controlled via the permeability of the extracellular marker lucifer yellow (10 μM).
In Vitro Transport Experiments
Bidirectional transcellular transport using LLC-PK1 and L-MDR1 LLC-PK1 cells exogenously expressing the human MDR1)
The method used for transport experiments were performed on a TECAN automated liquid handling system. Briefly, medium was removed from all compartments and the medium of receiver side was replaced with culture medium. The trans-cellular transport measurements were initiated by adding the substrate together with extracellular marker lucifer yellow to the donor side. Inhibitors were added to both sides (1 μM elacridar). […] The plates were incubated at 37° C. and 5% CO2 in a Liconic incubator. Samples were taken from the donor and the opposite (acceptor) side after 2 hours incubation. Concentrations of substrate in both compartments were determined by scintillation counting (digoxin) or by LC-MS/MS. […] In each experiment 3 different inserts were used for each condition and a mean was calculated.
Bidirectional transcellular transport using LLC-PK1 and L-MDR1 cells
For the transcellular transport, the following equation was used for data evaluation: […]
Where Papp, A, C0, and dQ/dt represent the apparent permeability, the filter surface area, the initial concentration, and the amount transported per time period, respectively.
Transport efflux ratios (ER) were calculated as follows: […]
Where PappBA is the permeability value in the basolateral-to-apical direction, and PappAB the permeability value in the apical-to-basolateral direction. Papp were not corrected for flux of the extracellular marker lucifer yellow, which was used to assess the quality of the cell mono layers.

BACE1 = target: T2, BACE1 (Homo sapiens, UniProt P56817); test: Cellular Aβ-lowering assay (Abeta 40 AlphaLISA); type: cell-based; conditions: HEK293 APP cells, 18-20 hrs incubation, Aβ 40 in culture supernatant; read-out: BACE1 cell act. Aβ40 IC50
T2 construct: endogenous in cells; host or cells: HEK293 APP cells
T2 sequence (P56817 46-501): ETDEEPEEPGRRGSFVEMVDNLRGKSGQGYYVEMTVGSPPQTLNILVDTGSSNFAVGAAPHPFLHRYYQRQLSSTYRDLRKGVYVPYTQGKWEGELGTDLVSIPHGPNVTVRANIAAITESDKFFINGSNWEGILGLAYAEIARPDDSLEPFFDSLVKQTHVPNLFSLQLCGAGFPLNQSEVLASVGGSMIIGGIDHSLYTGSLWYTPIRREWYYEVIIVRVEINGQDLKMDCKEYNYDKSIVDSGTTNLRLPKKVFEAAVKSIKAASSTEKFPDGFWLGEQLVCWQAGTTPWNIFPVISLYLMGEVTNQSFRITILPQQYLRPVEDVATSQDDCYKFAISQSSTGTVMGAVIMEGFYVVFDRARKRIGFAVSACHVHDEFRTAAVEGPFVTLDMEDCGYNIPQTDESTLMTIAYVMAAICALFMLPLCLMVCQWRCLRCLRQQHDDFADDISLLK
Method: Cellular Aβ-Lowering Assay:
The Abeta 40 AlphaLISA Assay can be used. The HEK293 APP cells were seeded in 96 well Microtiter plates in cell culture medium (Iscove's, plus 10% (vv) fetal bovine serum, penicillinstreptomycin) to about 80% confluency and the compounds were added at a 3× concentration in 13 volume of culture medium (final DMSO concentration was kept at 1% vv). After 18-20 hrs incubation at 37° C. and 5% CO2 in a humidified incubator, the culture supernatants were harvested for the determination of Aβ 40 concentrations using Perkin-Elmer Human Amyloid beta 1-40 (high specificity) Kit (Cat# AL275C).
Levels of Aβ 40 in the culture supernatants were calculated as percentage of maximum signal (cells treated with 1% DMSO without inhibitor). The IC50 values were calculated using the Excel XLfit software.

[1] = Detection of glutathione conjugates (GSH); type: in vitro ADME, human; parameters: key: NF = in vitro no adduct formation relative to control; conditions: in vitro, relative to control
Text: Detection of Glutathione Conjugates (GSH) The assay conditions for the detection of glutathione conjugates follow the procedure described by C. M. Dieckhaus et al. in Chem. Res. Toxicol. 2005, 18, 630-63.

CYP2D6 = target: T3, CYP2D6 (Homo sapiens, UniProt P10635); test: CYP inhibition assay, CYP2D6; type: in vitro ADME; conditions: pooled human liver microsomes, dextromethorphan substrate; read-out: CYP IC50 2D6
T3 construct: 0.2 mg/ml pooled human liver microsomes; from tissue; host or cells: pooled human liver microsomes
T3 sequence (P10635 whole entry): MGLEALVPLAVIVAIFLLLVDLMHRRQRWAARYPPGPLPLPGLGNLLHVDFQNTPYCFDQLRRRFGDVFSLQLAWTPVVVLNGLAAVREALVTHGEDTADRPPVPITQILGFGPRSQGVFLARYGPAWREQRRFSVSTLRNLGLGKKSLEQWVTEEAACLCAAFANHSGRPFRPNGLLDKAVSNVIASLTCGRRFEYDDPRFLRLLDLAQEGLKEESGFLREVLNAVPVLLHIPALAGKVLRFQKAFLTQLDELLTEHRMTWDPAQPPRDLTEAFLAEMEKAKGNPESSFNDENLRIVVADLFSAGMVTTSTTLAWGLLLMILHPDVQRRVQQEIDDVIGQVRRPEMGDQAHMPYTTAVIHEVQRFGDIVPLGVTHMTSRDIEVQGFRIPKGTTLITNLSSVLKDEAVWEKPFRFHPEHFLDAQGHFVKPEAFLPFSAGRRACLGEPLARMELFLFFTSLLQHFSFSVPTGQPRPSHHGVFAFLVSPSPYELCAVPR
Method: Inhibition of cytochromes P450 (CYPs) 2C9, 2D6 and 3A4 was assessed using human liver microsomes and CYP-selective substrate metabolism reactions. […] Quenched incubates were stored at −20° C. for at least 1 hour before centrifugation (20,000×g, 20 minutes). Supernatants were removed and diluted 1:1 with water prior to analysis using a RapidFire sample injector system and API4000 mass spectrometer. Peak areas for substrate, metabolite and stable-labelled metabolite standard were determined using MS/MS. The peak area ratios between the metabolite generated by the enzymatic reaction and the internal standard were used in subsequent calculations. The percentage of (DMSO) control activity was calculated for each incubate and IC50 values estimated by non-linear regression. Sulfaphenazole, quinidine or ketoconazole were tested in each CYP2C9, CYP2D6 or CYP3A4 inhibition experiment, respectively, to ensure assay sensitivity and reproducibility.

[2] = target: T4, cathepsin D (from human liver) (Homo sapiens, UniProt P07339); test: Cathepsin D fluorescent substrate kinetic assay; type: biochemical; conditions: pH 5.5
T4 construct: cathepsin D (from human liver, Calbiochem) diluted in assay buffer; purchased Calbiochem; host or cells: human liver
T4 sequence (P07339 65-412): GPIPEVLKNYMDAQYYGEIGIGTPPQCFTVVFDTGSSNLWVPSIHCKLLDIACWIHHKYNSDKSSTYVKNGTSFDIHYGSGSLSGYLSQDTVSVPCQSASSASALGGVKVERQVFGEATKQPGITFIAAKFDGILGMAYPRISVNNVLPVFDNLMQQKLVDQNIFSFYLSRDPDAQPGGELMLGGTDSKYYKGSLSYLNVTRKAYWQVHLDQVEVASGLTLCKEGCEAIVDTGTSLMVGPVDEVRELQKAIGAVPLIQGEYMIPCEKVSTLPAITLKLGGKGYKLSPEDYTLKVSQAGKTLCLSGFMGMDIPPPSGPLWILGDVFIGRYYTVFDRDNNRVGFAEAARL
Text: Cathepsin D and Cathepsin E Fluorescent Substrate Kinetic Assays
The MR121 fluorescence assays described below are based on the fact that MR121 forms a non-fluorescent ground state complex with tryptophan. In solution this formation occurs at millimolar concentrations of tryptophan. The mechanism can be used to design a generic biochemical assay for proteases. […] In absence of protease activity, the substrates remain intact and the MR121 fluorescence is reduced by the high local Trp-concentration. If the substrates are cleaved by the enzymes the MR121 fluorescence is recovered.
The fluorescent substrate cathepsin D and cathepsin E kinetic assays were performed at room temperature in 384-well microtiter plates (black with clear flat bottom, non binding surface plates from Corning) in a final volume of 51 μl. The test compounds were serially diluted in DMSO (15 concentrations, 1/3 dilution steps) and 1 μl of diluted compounds were mixed for 10 min with 40 μl of cathepsin D (from human liver, Calbiochem) diluted in assay buffer (100 mM sodium acetate, 0.05% BSA, pH 5.5; final concentration: 200 nM) or with 40 μl of recombinant human cathepsin E (R&D Systems) diluted in assay buffer (100 mM sodium acetate, 0.05% BSA, pH 4.5; final concentration: 0.01 nM). […] The slope in the linear range of the kinetic was calculated and the IC50 of the test compounds were determined using a four parameter equation for curve fitting.

T1 sequence (P08183 whole entry): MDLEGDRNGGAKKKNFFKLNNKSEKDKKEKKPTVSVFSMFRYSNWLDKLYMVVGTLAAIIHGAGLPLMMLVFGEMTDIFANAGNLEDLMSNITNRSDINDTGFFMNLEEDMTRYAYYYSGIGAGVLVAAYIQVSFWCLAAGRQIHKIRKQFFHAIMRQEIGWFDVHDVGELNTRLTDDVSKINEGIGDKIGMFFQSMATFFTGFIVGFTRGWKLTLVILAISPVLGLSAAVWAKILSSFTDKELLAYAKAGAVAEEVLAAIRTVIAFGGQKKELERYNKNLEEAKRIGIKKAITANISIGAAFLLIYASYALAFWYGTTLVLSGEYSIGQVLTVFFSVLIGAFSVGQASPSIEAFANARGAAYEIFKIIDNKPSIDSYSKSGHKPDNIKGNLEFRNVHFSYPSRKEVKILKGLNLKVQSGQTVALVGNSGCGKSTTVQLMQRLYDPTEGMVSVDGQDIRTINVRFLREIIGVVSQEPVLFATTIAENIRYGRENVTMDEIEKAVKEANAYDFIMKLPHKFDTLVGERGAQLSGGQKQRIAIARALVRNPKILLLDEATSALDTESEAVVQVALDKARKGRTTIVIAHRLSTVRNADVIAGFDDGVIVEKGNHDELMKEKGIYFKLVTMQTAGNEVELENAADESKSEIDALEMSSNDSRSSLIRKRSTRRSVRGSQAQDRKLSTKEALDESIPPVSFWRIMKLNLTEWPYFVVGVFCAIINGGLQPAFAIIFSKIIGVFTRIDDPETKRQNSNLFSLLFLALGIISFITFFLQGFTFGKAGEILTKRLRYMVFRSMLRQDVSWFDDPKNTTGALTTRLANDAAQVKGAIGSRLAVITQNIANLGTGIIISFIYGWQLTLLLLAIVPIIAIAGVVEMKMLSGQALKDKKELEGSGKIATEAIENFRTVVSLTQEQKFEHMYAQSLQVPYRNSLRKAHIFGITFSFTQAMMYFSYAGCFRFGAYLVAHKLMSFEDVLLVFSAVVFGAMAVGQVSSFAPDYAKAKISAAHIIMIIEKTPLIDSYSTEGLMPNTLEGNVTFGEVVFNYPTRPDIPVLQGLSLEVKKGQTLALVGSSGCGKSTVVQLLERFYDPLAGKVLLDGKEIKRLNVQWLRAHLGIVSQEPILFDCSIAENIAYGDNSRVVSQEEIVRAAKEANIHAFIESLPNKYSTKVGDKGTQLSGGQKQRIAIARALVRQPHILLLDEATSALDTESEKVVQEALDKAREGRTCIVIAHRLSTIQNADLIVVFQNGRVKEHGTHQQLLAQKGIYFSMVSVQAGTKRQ

| efflux ratio at 2 h (P-gp (human MDR1)) | IC50 (BACE1) | GSH human (glutathione adduct formation) [1] | IC50 (CYP2D6) | IC50 [2] | SMILES |
| --- | --- | --- | --- | --- | --- |
| 1.82 | 0.005 µM | NF | 3.9 µM | > 200 µM | C[C@@]1(c2cc(NC(=O)c3ccc(Cl)cn3)ccc2F)C[C@@H](C(F)(F)F)OC(N)=N1 [Example 2, N-(3-((4S,6S)-2-amino-4-methyl-6-(trifluoromethyl)-5,6-dihydro-4H-1,3-oxazin-4-yl)-4-fluorophenyl)-5-chloropicolinamide] |
| 2.3 | 0.004 µM | NF | 1.6 µM | > 200 µM | C[C@@]1(c2cc(NC(=O)c3ccc(OCF)cn3)ccc2F)C[C@@H](C(F)(F)F)OC(N)=N1 [Example 11, N-(3-((4S,6S)-2-Amino-4-methyl-6-(trifluoromethyl)-5,6-dihydro-4H-1,3-oxazin-4-yl)-4-fluorophenyl)-5-(fluoromethoxy)picolinamide] |
| 2.63 | 0.0002 µM | NF | 13 µM | 179 µM | CC#CCOc1cnc(C(=O)Nc2ccc(F)c([C@]3(C)C[C@@H](C(F)(F)F)OC(N)=N3)c2)cn1 [Example 22, N-(3-((4S,6S)-2-Amino-4-methyl-6-(trifluoromethyl)-5,6-dihydro-4H-1,3-oxazin-4-yl)-4-fluorophenyl)-5-(but-2-ynyloxy)pyrazine-2-carboxamide] |
| 1.5 | 0.019 µM | NF | 5.2 µM | > 200 µM | NC1=N[C@](CF)(c2cc(NC(=O)c3ccc(OCF)cn3)ccc2F)C[C@@H](C(F)(F)F)O1 [Example 35, N-(3-((4S,6S)-2-Amino-4-(fluoromethyl)-6-(trifluoromethyl)-5,6-dihydro-4H-1,3-oxazin-4-yl)-4-fluorophenyl)-5-(fluoromethoxy)picolinamide] |
